Test results taken from patent US5670520A, “Method for inhibiting virus replication in mammalian cells using carbostyil derivatives” (Otsuka Pharmaceutical Co., Ltd., priority 1996, dated 1997).

Assays:
human T cells [1] = experiment: [3H]thymidine incorporation by PHA-stimulated human T cells; type: cell-based; details: 10 μg/ml PHA 48 hrs; 15 nM aphidicolin or 100 μM deferoxamine (FIG. 1B)
Method: More specifically, human primary T cells were separated from peripheral blood obtained by leukopheresis of healthy donors. Mononuclear cell suspensions were prepared by Ficoll-Hypaque gradient centrifugation, and T cells were obtained by E-rosette enrichment as described by Kumagai et al, J. Cell. Physiol., 137:329 (1988).
Then, 1.0 μCi of [^3 H]thymidine (6.7 Ci/mmole, ICN), was added to 2.0×10^6 cells (100 μl), and the cells were pulse-labeled for 6 hrs.

human T cells [2] = experiment: 30 min [3H]thymidine, [3H]uridine and [3H]amino acid incorporation; type: cell-based; details: 30 min label; 250 μM vesnarinone, 15 nM aphidicolin or 100 μM deferoxamine
Method: Next, the PHA-stimulated T cells were labelled for 30 min with 5.0 μCi/ml of an [^3 H]amino acid mixture (1.0 mCi/ml, Amersham, Arlington Heights, Ill.), washed twice with ice-cold PBS, and then lysed in PBS containing 1.0% (w/v) SDS, followed by addition of a mixture of 7.0% (w/v) trichloroacetic acid and 1.0% (w/v) pyrophosphate. The precipitates were loaded on GF/A filters, and washed extensively with a mixture of 7.0% (w/v) trichloroacetic acid and 1.0% (w/v) pyrophosphate. Radioactivity was measured by scintillation counting.

human T cells [3] = experiment: Cell numbers of PHA-stimulated human T cells over 120 hrs; type: cell-based; details: 10 μg/ml PHA, 0-120 hrs; 250 μM vesnarinone, 15 nM aphidicolin or 100 μM deferoxamine
Method: Next, the effects of the above-described drugs on cell proliferation were evaluated over a period of 120 hrs.

[4] = system: nucleoside and nucleobase transport in human T cells; experiment: [3H]nucleoside / [3H]nucleobase transport, 1 min pulse, T cells; type: cell-based; details: 250 μM vesnarinone, 100 μM deferoxamine, 15 nM aphidicolin or 1.0 μM dipyridamole
CMV strain AD169 = experiment: CMV plaque reduction assay in MRC5 cells; type: cell-based; details: Human betaherpesvirus 5, AD169, MRC5, 168 h; single compound assay, regression analysis; read-out: MIC50 (minimum concentration that reduces plaque production by 50%)
Method: More specifically, subconfluent monolayers of MRC5 cells (Biowhittaker, Walkersville, Md.) in 12-well tissue culture plates were exposed to a suspension of a 1:500 dilution of stock virus (CMV strain AD169; ATCC No. VR-538) in Eagles Minimal Essential Medium (MEM) supplemented with 2.0% (v/v) fetal bovine serum, for 2 hr at 37° C. to allow for virus absorption. The fluid containing unabsorbed virus was then removed, and the cell layer rinsed with Eagles MEM without serum.
The minimum compound concentration that reduces plaque production by 50% (MIC50) was calculated from single compound assays by using a regression analysis program for semilog curve fitting.
The following formula of additivity, which is appropriate for inhibitors affecting different sites, was used.

[5] = MTT cell viability of MRC5 cells; type: cell-based; details: human, mrc5 cells, read-out: MTT Cell Viability (% of control)
Method: More specifically, 5.0 μg/ml of MTT in Eagles MEM supplemented with 2.0% (v/v) fetal bovine serum was added to each well, and incubated at 37° C. for 6 hr. The cells were then solubilized by adding 30% (w/v) SDS in 0.02N HCl. The cultures were incubated overnight at 37° C. Then, the optical density was measured at 570 nm on a spectrophotometer.

U937 cells [6] = experiment: Intracellular phosphorylated AZT in U937 cells (DEAE filter); details: 0-250 μM vesnarinone or 0-100 nM dipyridamole; 2 hr
CHO cells [7] = experiment: [3H]adenosine / [3H]adenine transport in CHO cells; details: 0-750 μM vesnarinone or 0-100 μM dipyridamole, 1 min pulse
Raji cells = experiment: [3H]adenosine / [3H]adenine transport in Raji cells; details: 0-750 μM vesnarinone or 0-100 μM dipyridamole, 1 min pulse
[8] = in vivo; cited from earlier work
U937 cells [9] = experiment: [3H]thymidine uptake in U937 cells within 1 min; type: cell-based, human
Method: Dipyridamole was prepared as a 50 mM stock solution dissolved in ethanol.

CHO cells [10] = experiment: Rescue of CHO cells from cytostatic effects of 5-FUd; type: cell-based, Chinese hamster; details: 50 nM 5-FUd, 120 hrs; 0-250 μM vesnarinone or 1.0-10 μM dipyridamole
Text: Nucleoside transport inhibitors, such as dipyridamole or NBMPR, are known to rescue cell proliferation from the cytotoxic effects of 5-fluorouridine(5-FUd) or high dose thymidine, by inhibiting transport of this cytotoxic nucleoside analog or thymidine (Aronow et al, Mol. Cell Biol., 6:2957-2962 (1986)).

[11] = system: HIV-1 strain 18a (AZT-sensitive); experiment: microbe, parasite or virus in culture; details: Human immunodeficiency virus 1, PBMC, 120 h, read-out: IC50, p24 production
Method: (§1) More specifically, PBMC were incubated for 48 hr with 3.0 μg/ml of PHA and 10 U/ml of IL-2. Then, 10-100 TCID50 virus/ml of clinical isolate strains of HIV-1, 18a (AZT-sensitive) or 18c (AZT-resistant), were added. […] After 5 days of infection, the supernatant was collected and HIV-1 p24 antigen was measured using the p24 ELISA kit (NEN Dupont).
(§2) The combination index (CI) was calculated using multiple drug effect analysis of Chou and Tala, as described by Johnson et al, J. Infect. Dis., 159:837-844 (1989). CI values of <1, =1, and >1, indicate synergism, additive effects, and antagonism, respectively.

[12] = system: HIV-1 strain 18c (AZT-resistant); experiment: HIV-1 p24 antigen production by infected PBMC, strain 18c; type: cell-based; details: Human immunodeficiency virus 1, 120 h; 18c infected PBMC, 5 days, AZT alone
Method: as §1, §2

U937 cells [13] = experiment: Intracellular AZT-MP, AZT-DP, AZT-TP in U937 cells by HPLC; details: U937 cells, 5.0 μCi/ml [3H]AZT, 2 hr
Method: 1.0 ml fractions were collected, and the radioactivity was measured by liquid scintillation. The retention time for AZT and AZT-MP was confirmed using cold AZT and AZT-MP (Sigma) under the same conditions.
Intracellular concentrations of [^3 H]AZT-MP, [^3 H]AZT-DP, and [^3 H]AZT-TP were measured using HPLC as described above.

EBV = experiment: In situ hybridization of EBV DNA in anti-IgG stimulated DMSO-released Akata cells; type: cell-based, Epstein-Barr virus; details: 20 hrs after 50 μg/ml anti-IgG; vesnarinone 0-100 μg/ml; acyclovir pretreatment
Method: The human Burkitt's lymphoma cell line, Akata, provided by Dr. Kenzo Takada (Takada, Int. J. Cancer, 33:27-32 (1984); and Takada et al, Virus Genes, 5:147-156 (1991)), was cultured at 37° C. in RPMI 1640 medium supplemented with 15% (v/v) heat-inactivated FCS, and 20 μg/ml gentamicin.
The cell progression of Akata cells was arrested by culturing of the cells for 96 hrs in the presence of 1.5% (y/v) DMSO (Sigma, St. Louis, Mo.) (Sawai et al, Exp. Cell Res., 187:4-10 (1990); and Takase et al, Cell Growth Differ., 3:515-521 (1992)).
1 hr after transfer (release from DMSO), a goat F(ab')2 fragment of anti-human IgG antibody (Organon Teknika, Durham, N.C.) was added at a concentration of 50 μg/ml to induce productive EBV replication (Takagi et al, Virology, 185:309-315 (1991)).
3 hrs and 20 hrs after treatment with the anti-IgG, the cells were harvested for flow cytometric detection of the BamHI Z replication activator (ZEBRA), and for in situ detection of EBV DNA, respectively. […]
More specifically, cells coated on a glass slide were fixed in acetone at room temperature for 10 min. […] Positivity for EBV DNA was determined by the presence of red-colored grains and at least 1000 cells were examined under light microscopy. […]

C[C@@]1(CO)[C@H](O)CC[C@@]2(C)[C@H]1CC[C@H]1C[C@@H]3C[C@@]12CC[C@]3(O)CO [aphidicolin]
[3H]thymidine incorporation (human T cells [1]): also inhibited [^3 H]thymidine incorporation | [3H]uridine incorporation, brief exposure (human T cells [2]): did not inhibit [^2 H]uridine incorporation | cell proliferation (cell number) (human T cells [3]): no increases in cell number were observed | transport of [3H]thymidine, [3H]adenosine, [3H]adenine, [3H]uracil [4]: had no effect on the transport of these nucleosides or nucleobases

Nc1nc2c(ncn2COC(CO)CO)c(=O)[nH]1 [DHPG, 9-(1,3-dihydroxy-2-propoxymethyl) guanine, reference compound]
EC50 (CMV strain AD169): > 5 µM | viability at 0.625 µM ([5]; DHPG 0.625 μM alone): 100% | viability at 1.25 µM ([5]; DHPG 1.250 μM alone): 100% | viability at 5 µM ([5]; DHPG 5.000 μM alone): 100%

OCCN(CCO)c1nc(N2CCCCC2)c2nc(N(CCO)CCO)nc(N3CCCCC3)c2n1 [dipyridamole, reference compound]
intracellular concentration of phosphorylated AZT (U937 cells [6]): did not affect intracellular concentrations of phosphorylated AZT | [3H]adenosine and [3H]adenine transport (CHO cells [7]): inhibited adenosine transport in a selective fashion with no effect on adenine transport in its therapeutic range | [3H]adenosine and [3H]adenine transport (Raji cells): inhibited adenosine transport in a selective fashion with no effect on adenine transport in its therapeutic range | therapeutic range [8]: 10 to 100 nM | uptake of thymidine (U937 cells [9]; 0-250 μM vesnarinone or 0-1000 nM dipyridamole): inhibited the uptake of thymidine in a dose-dependent manner | IC50 (U937 cells [9]; Homo sapiens, U-937, 1 min, U937 cells, within 1 min): < 0.01 µM | reversal of cytostatic effects of 5-FUd (cell number) (CHO cells [10]): significantly reversed the cytostatic effects of 5-FUd | transport of [3H]thymidine, [3H]adenosine, [3H]adenine, [3H]uracil [4]: suppressed nucleoside transport, but not nucleobase transport

Cc1cn([C@H]2C[C@H](N=[N+]=[N-])[C@@H](CO)O2)c(=O)[nH]c1=O [AZT, 3'azido-3'-deoxythymidine]
IC50 [11]: 0.00067 µM | IC50 [12]: > 0.64 µM | intracellular phosphorylation of AZT (U937 cells [13]): phosphorylated to AZT-MP, but poorly phosphorylated beyond this stage to the diphosphate form

Nc1nc2c(ncn2COCCO)c(=O)[nH]1 [acyclovir, 9-[(2-hydroxyethoxy)methyl]guanine, reference compound]
population of EBV producing cells (positivity for EBV DNA) (EBV): dramatically reduced by acyclovir pretreatment

CC(=O)N(O)CCCCCNC(=O)CCC(=O)N(O)CCCCCNC(=O)CCC(=O)N(O)CCCCCN [deferoxamine]
[3H]thymidine incorporation (human T cells [1]): also inhibited [^3 H]thymidine incorporation | [3H]thymidine incorporation, brief exposure (human T cells [2]): only partially inhibited [^3 H]thymidine incorporation | [3H]uridine incorporation, brief exposure (human T cells [2]): did not inhibit [^2 H]uridine incorporation | cell proliferation (cell number) (human T cells [3]): no increases in cell number were observed | transport of [3H]thymidine, [3H]adenosine, [3H]adenine, [3H]uracil [4]: had no effect on the transport of these nucleosides or nucleobases
